From article PMC4948680 (European journal of pharmaceutical sciences : official …, 2016)

Key:
[1] = parameters: species or system humans
Description: Clearance kinetics in each organ was determined by exponential curve fitting. The time-integrated activity concentration (TIAC) was obtained by integration of this exponential curve folded with the decay curve of ^111In and ^177Lu.Mouse dosimetry was calculated for both ^177Lu and ^111In using the TIAC and the 25 g RADAR mouse absorbed dose rates per unit activity S for each source and target organ combination ([Keenan et al., 2010]; [Konijnenberg et al., 2014]).
Extrapolation of biodistribution uptake data in mice to humans was based on two options for interspecies scaling ([Stabin, 2008]). 1. (%IA/organ)human=[(%IA/g)mouse×Mmouse(kg)]×(m(g)/M(kg))human with m the organ mass and M the total body weight of mouse or human and with %IA/gand%IA/organ the percentage of the injected activity concentration and per organ, respectively. The mouse organ TIACs are multiplied with the ratio of mouse and human body weights Mmouse/Mhuman to obtain the extrapolated human TIAC, and this multiplied with the organ mass (from the MIRD standard man phantom) yields the residence time in each source organ. 2. (%IA/organ)human=(%IA/organ)mouse=(%IA/g)mouse×mmouse in this method the uptake per organ is extrapolated one-to-one from mouse to man. The extrapolated human residence time is obtained by multiplying the mouse TIAC or each source organ with its mouse organ mass. […]

A431-CCK2R(±) xenografts = assay: in vivo; parameters: species or system SCID mice; details: SCID, mouse, iv, 10 pmol peptide, 4 h
Description: (§1) The human epidermoid A431 cell line transfected to stably express the CCK2R (A431-CCK2R(+)) or devoid of CCK2R expression (A431-CCK2R(−)) used for tumour induction in this work was a gift from Prof. O. Boerman (Department of Nuclear Medicine, Radboud University Nijmegen Medical Centre, Nijmegen, The Netherlands) and Prof. L. Aloj (Istituto di Biostrutture e Bioimmagini, Consiglio Nazionale delle Ricerche, Naples, Italy) and cells were cultured as previously reported ([Aloj et al., 2004]). Suspensions of freshly harvested A431-CCK2R(±) cells (~150 μL, 1.6 × 10^7/1.4 × 10^7) in normal saline were subcutaneously injected in the flanks of mice.
(§2) Animals were euthanized in groups of four at 1 h, 4 h and 24 h pi; in a separate 4-h group animals received gelofusine (100 μL) together with the radioligand. […] Mice were dissected and samples of blood and tissues of interest as well as tumours were excised, weighted and counted for radioactivity in the gamma counter. Data was calculated as percent injected dose per gram tissue (%ID/g) with the aid of suitable standards of the injected dose and represent mean ± SD. In all above experiments, analysis of the solution used in the biodistribution experiment was conducted prior to and after completion of all animal injections.
(§3) Statistical analysis using the unpaired two-tailed Student’s t-test was performed to compare values between A431-CCK2R(+) and A431-CCK2R(−) tumours, as well as kidney, stomach and A431-CCK2R(+) tumour values between 4 h control and gelofusine-treated animal groups; values P < 0.05 were considered statistically significant (Table 2). The pharmacokinetic profile was determined by fitting an exponential curve through the organ time-activity data according to the least-squares method. The number of exponentials in the fitted curve was analysed according to the Aikake Information Criterion (AICc). All fitting was performed with Graphpad Prism version 5.

in vivo = assay: in vivo; parameters: species or system SCID mice; details: SCID, mouse, iv, 10 pmol peptide, total radioactivity, %ID/g tissue
Description: as §1, §2, §3

In the case of `CSCC[C@H](NC(=O)[C@H](Cc1c[nH]c2ccccc12)NC(=O)CNC(=O)[C@H](Cc1ccc(O)cc1)NC(=O)[C@H](C)NC(=O)[C@@H](CCC(=O)O)NC(=O)[C@@H](CCC(=O)O)NC(=O)[C@@H](CCC(=O)O)NC(=O)[C@@H](CCC(=O)O)NC(=O)[C@@H](CCC(=O)O)NC(=O)[C@@H](CCC(=O)O)NC(=O)CN1CCN(CC(=O)O)CCN(CC(=O)O)CCN(CC(=O)O)CC1)C(=O)N[C@@H](CC(=O)O)C(=O)N[C@@H](Cc1ccccc1)C(N)=O` [^111In-CP04, ^111In-DOTA-(DGlu)6-Ala-Tyr-Gly-Trp-Met-Asp-Phe-NH2, metal not drawn], the “calculated absorbed dose for kidneys” value [1] is reported as 27.5 mGy/220 MBq, the “expected whole body radiation dose (effective dose)” value [1] is reported as 9.9 mSv and the “%ID/g tissue, Intestines” value (A431-CCK2R(±) xenografts) is reported as 0.29 ± 0.18 %ID/g. For the same compound, the “%ID/g tissue, Kidneys” value (A431-CCK2R(±) xenografts) was 6.52 %ID/g, the “%ID/g tissue, Liver” value (A431-CCK2R(±) xenografts) was 0.12 ± 0.02 %ID/g and the “%ID/g tissue, Stomach” value (A431-CCK2R(±) xenografts) was 1.63 ± 0.20 %ID/g. For the same compound, the “%ID/g tissue, Tumour(+) (A431-CCK2R(+))” value (A431-CCK2R(±) xenografts) was 8.49 %ID/g, the tissue uptake at 1 h (in vivo; Blood) was 0.55 ± 0.17 %ID/g and the tissue uptake at 4 h (in vivo; Blood) was 0.02 ± 0.01 %ID/g. The tissue uptake at 1 h (in vivo; Femur) was 0.96 ± 0.46 %ID/g, the tissue uptake at 4 h (in vivo; Femur) was 0.3 ± 0.22 %ID/g and the tissue uptake at 24 h (in vivo; Femur) was 0.24 ± 0.09 %ID/g. For the same compound, the tissue uptake at 1 h (in vivo; Heart) was 0.24 ± 0.08 %ID/g, the tissue uptake at 4 h (in vivo; Heart) was 0.02 ± 0.01 %ID/g and the tissue uptake at 24 h (in vivo; Heart) was 0.02 %ID/g. The tissue uptake at 1 h (in vivo; Intestines) was 0.36 ± 0.13 %ID/g, the tissue uptake at 4 h (in vivo; Intestines) was 0.22 ± 0.08 %ID/g and the tissue uptake at 24 h (in vivo; Intestines) was 0.1 ± 0.04 %ID/g. It also gave a tissue uptake at 1 h (in vivo; Kidneys) of 5.53 ± 0.78 %ID/g, a tissue uptake at 4 h (in vivo; Kidneys) of 5.55 ± 0.94 %ID/g and a tissue uptake at 24 h (in vivo; Kidneys) of 3.29 ± 0.56 %ID/g. The tissue uptake at 1 h (in vivo; Liver) was 0.38 ± 0.12 %ID/g, the tissue uptake at 24 h (in vivo; Liver) was 0.01 ± 0.01 %ID/g and the tissue uptake at 1 h (in vivo; Lung) was 0.47 ± 0.13 %ID/g. It also gave a tissue uptake at 4 h (in vivo; Lung) of 0.04 ± 0.01 %ID/g, a tissue uptake at 24 h (in vivo; Lung) of 0.03 ± 0.01 %ID/g and a tissue uptake at 4 h (in vivo; Muscle) of 0.03 ± 0.02 %ID/g. The tissue uptake at 24 h (in vivo; Muscle) was 0.01 ± 0.01 %ID/g, the tissue uptake at 1 h (in vivo; Pancreas) was 0.23 ± 0.08 %ID/g and the tissue uptake at 4 h (in vivo; Pancreas) was 0.06 ± 0.01 %ID/g. For the same compound, the tissue uptake at 24 h (in vivo; Pancreas) was 0.05 ± 0.01 %ID/g, the tissue uptake at 4 h (in vivo; Spleen) was 0.04 ± 0.02 %ID/g and the tissue uptake at 24 h (in vivo; Spleen) was 0.05 ± 0.01 %ID/g. For the same compound, the tissue uptake at 1 h (in vivo; Stomach) was 2.6 ± 0.48 %ID/g, the tissue uptake at 4 h (in vivo; Stomach) was 2.09 ± 0.32 %ID/g and the tissue uptake at 24 h (in vivo; Stomach) was 1.58 ± 0.15 %ID/g. It also gave a tissue uptake at 1 h (in vivo; Tumour(+) (A431-CCK2R(+))) of 12.6 ± 1.73 %ID/g, a tissue uptake at 4 h (in vivo; Tumour(+) (A431-CCK2R(+))) of 9.24 ± 1.35 %ID/g and a tissue uptake at 24 h (in vivo; Tumour(+) (A431-CCK2R(+))) of 4.98 ± 0.56 %ID/g. The tissue uptake at 1 h (in vivo; Tumour(–) (A431-CCK2R(–))) was 1.07 ± 0.29 %ID/g and the tissue uptake at 24 h (in vivo; Tumour(–) (A431-CCK2R(–))) was 0.1 ± 0.02 %ID/g.
